Series [1] deals with Salmonella typhimurium S-9. Nature of the series: In vivo efficacy against systemic infection with Salmonella typhimurium in mice. The conditions noted are these: Salmonella enterica, 336 h, male ddY-S mice, twice a day for 4 days, observation 14 days. The protocol: (§1) In the Tables II and III, the ED50 and LD50 values were calculated in accordance with the Bcherns-Kaerber method [Arch. Exp. Path, Pharm., 162, 480 (1931)].
(§2) 2) In vivo efficacy against systemic infection with
(§3) Pseudomonas aeruginosa and Salmonella typhimurium
**Experimental conditions:
Organism: Salmonella typhimurium S-9
Ice: male mice (ddY-S) weighing 20 g approximately.
Intraperitoneal infection with 50 to 100
LD50 (about 10^5 cells/mouse) of a bacterial
suspension in a nutrient broth.
twice a day for 4 days from the day of
(§4) Drug: an alkaline solution (pH 8 - 9) for intraperitoneal
administration and suspension in 0.2% carboxymethyl
cellulose for oral administration.
(§5) ip: intraperitoneal administration.
po: oral administration.

Series [2] relates to Pseudomonas aeruginosa Tsuchijima. Nature of the series: In vitro antibacterial activity (MIC, serial dilution), Pseudomonas aeruginosa. The following applies: nutrient broth, pH 7.0; 37° C for 48 hours.
Description: (§6) The minimum inhibitory concentration (MIC) was
(§7) determined by the well known serial dilution method.
(§8) Medium: nutrient broth, pH 7.0 (5 ml/tube)
(§9) Inoculum: 1 drop of 1 : 10^5 dilution of an
overnight broth culture per tube
Series [3] relates to Escherichia coli K-12. Nature of the series: In vitro antibacterial activity (MIC, serial dilution), Escherichia coli. The following applies: nutrient broth, pH 7.0; 37° C for 48 hours.
Description: as §6, §7, §8, §9
overnight broth culture per tube
Series [4] deals with Pseudomonas aeruginosa No. 12. Nature of the series: In vivo efficacy against systemic infection with Pseudomonas aeruginosa in mice. The following applies: NO.12, 168 h, male ddY-S mice, ip, twice, about 5 minutes and 6 hours after infection, observation 7 days. The protocol: as §1, §2, §3
*Experimental conditions:
Organism: Pseudomonas aeruginosa No. 12
Mice: male mice (ddY-S) weighing 20 g approximately.
intraperitoneal infection with 50 to 100
LD50 (about 5 × 10^3 cells/mouse) of a
bacterial suspension in 4% gastric mucin.
twice, about 5 minutes and 6 hours after
as §4, §5

Series [5] concerns Staphylococcus aureus Terajima. Nature of the series: In vitro antibacterial activity (MIC, serial dilution), Staphylococcus aureus. The conditions noted are these: nutrient broth, pH 7.0; 37° C for 48 hours.
Description: as §6, §7, §8, §9
overnight broth culture per tube
Series [6] can be described thus: Acute toxicity in mice. The conditions noted are these: mouse, in vivo. On the procedure:
as §1
3) Acute toxicity in mice
Experimental conditions:
Mice: male mice (ddY-S) weighing 20 g approximately
Drug: alkaline solution (pH 8 - 9) for intravenous
administration and suspension in 0.2%
carboxymethyl cellulose for oral administration.
iv: intravenous administration.
ip: oral administration.

For orientation: ED50 means the dose at which the effect has come halfway, by size or by number of responders. Read a low ED50 as greater potency. A word on the LD50: it is the dose at which mortality reaches 50%. As for `CCn1cc(C(=O)O)c(=O)c2ccc(N3CCNCC3)nc21` [compound 1214], the results for the ED50 in series [1] (ip), in series [1] (po) and in series [4] were 18.7 mg/kg, ~43.8 mg/kg and 9.2 mg/kg, respectively. In series [2], the “minimum inhibitory concentration (MIC), Pseudomonas aeruginosa Tsuchijima” value was found to be 10. Moreover, the “minimum inhibitory concentration (MIC), Escherichia coli K-12” value in series [3] was 3. The “minimum inhibitory concentration (MIC), Staphylococcus aureus Terajima” value in series [5] worked out at 30. Also, in series [6] (iv), the LD50 at 168 h is > 500 mg/kg.

`CCn1cc(C(=O)O)c(=O)c2cnc(N3CCN(C)CC3)cc21` [compound 1317]: the ED50 was determined as 14.9 mg/kg in series [1] (ip), 23.9 mg/kg in series [1] (po) and 50 mg/kg in series [4]. Besides, in series [2], the “minimum inhibitory concentration (MIC), Pseudomonas aeruginosa Tsuchijima” value stood at 100. Moreover, in series [3], the “minimum inhibitory concentration (MIC), Escherichia coli K-12” value is on record as 3. Also, the “minimum inhibitory concentration (MIC), Staphylococcus aureus Terajima” value in series [5] is 30. The LD50 at 168 h in series [6] (iv) was > 500 mg/kg.

With `CCn1cc(C(=O)O)c(=O)c2ccc(N(C)C)nc21` [compound 1249], the “minimum inhibitory concentration (MIC), Pseudomonas aeruginosa Tsuchijima” value in series [2] was > 100. In addition, the “minimum inhibitory concentration (MIC), Escherichia coli K-12” value in series [3] was determined as 1. For the same molecule, in series [4], the ED50 is > 100 mg/kg. Besides, the “minimum inhibitory concentration (MIC), Staphylococcus aureus Terajima” value in series [5] is given as 100.

As to `CN1CCN(c2ccc3c(=O)c(C(=O)O)cn(Cc4ccccc4)c3c2)CC1` [compound 1147], the “minimum inhibitory concentration (MIC), Pseudomonas aeruginosa Tsuchijima” value in series [2] was found to be 10. The “minimum inhibitory concentration (MIC), Escherichia coli K-12” value in series [3] worked out at 1. For the same molecule, in series [5], the “minimum inhibitory concentration (MIC), Staphylococcus aureus Terajima” value is on record as > 100.

As for `O=C(O)c1cn(Cc2ccccc2)c2cc(N3CCNCC3)ccc2c1=O` [compound 1162], in series [2], the “minimum inhibitory concentration (MIC), Pseudomonas aeruginosa Tsuchijima” value was 10. Also, the “minimum inhibitory concentration (MIC), Escherichia coli K-12” value in series [3] was found to be 1. Also, in series [5], the “minimum inhibitory concentration (MIC), Staphylococcus aureus Terajima” value turned out to be 30.

For `CCn1cc(C(=O)O)c(=O)c2cnc(N3CCCC3)nc21` [PA, 5,8-dihydro-8-ethyl-2-pyrrolidino-5-oxopyrido [2,3-d]pyrimidine-6-carboxylic acid, reference compound], in series [2], the “minimum inhibitory concentration (MIC), Pseudomonas aeruginosa Tsuchijima” value turned out to be 100. Also, in series [3], the “minimum inhibitory concentration (MIC), Escherichia coli K-12” value is 1. Moreover, the ED50 in series [4] was > 100 mg/kg. In addition, the “minimum inhibitory concentration (MIC), Staphylococcus aureus Terajima” value in series [5] was determined as 10. The LD50 at 168 h in series [6] (male ddY-S mice, iv, observation 7 days) is 268 mg/kg; in series [6] (male ddY-S mice, po, observation 7 days), > 4000 mg/kg.

Turning to `C=Cn1cc(C(=O)O)c(=O)c2ccc(N3CCNCC3)nc21` [compound 1424], the median effective dose (ED50) in series [1] (ip) worked out at 19.3 mg/kg; in series [1] (po), 22.9 mg/kg; in series [4] it was 3.9 mg/kg. In series [2], the “minimum inhibitory concentration (MIC), Pseudomonas aeruginosa Tsuchijima” value stood at 10. Moreover, the “minimum inhibitory concentration (MIC), Escherichia coli K-12” value in series [3] is reported as 1. In addition, the “minimum inhibitory concentration (MIC), Staphylococcus aureus Terajima” value in series [5] is listed as 100. In addition, the LD50 at 168 h was 354 mg/kg in series [6] (iv) and > 2000 mg/kg in series [6] (po).

As for `C=Cn1cc(C(=O)O)c(=O)c2ccc(N3CCN(C)CC3)cc21` [compound 1493], the ED50 in series [1] (ip) was determined as 3.4 mg/kg; in series [1] (po), 8.8 mg/kg; in series [4], 17.8 mg/kg. In series [2], the “minimum inhibitory concentration (MIC), Pseudomonas aeruginosa Tsuchijima” value was found to be 3. Also, the “minimum inhibitory concentration (MIC), Escherichia coli K-12” value in series [3] was determined as 1. Further, the “minimum inhibitory concentration (MIC), Staphylococcus aureus Terajima” value in series [5] was found to be 100. Moreover, the LD50 at 168 h was > 500 mg/kg in series [6] (iv) and > 2000 mg/kg in series [6] (po).

In the case of `C=Cn1cc(C(=O)O)c(=O)c2ccc(N3CCN(CC)CC3)cc21` [compound 1557], the results for the ED50 in series [1] (ip), in series [1] (po) and in series [4] were 5.1 mg/kg, 11.5 mg/kg and 19.3 mg/kg, respectively. In series [2], the “minimum inhibitory concentration (MIC), Pseudomonas aeruginosa Tsuchijima” value came to 10. Besides, the “minimum inhibitory concentration (MIC), Escherichia coli K-12” value in series [3] came to 1. For the same molecule, the “minimum inhibitory concentration (MIC), Staphylococcus aureus Terajima” value in series [5] was found to be 30. The LD50 at 168 h in series [6] (iv) was 354 mg/kg; in series [6] (po) it was > 2000 mg/kg.

Regarding `CCn1cc(C(=O)O)c(=O)c2cnc(N3CCNCC3)cc21` [compound 1367], the results for the ED50 in series [1] (ip), in series [1] (po) and in series [4] were 54.5 mg/kg, 70.7 mg/kg and ~12.5 mg/kg, respectively. The “minimum inhibitory concentration (MIC), Pseudomonas aeruginosa Tsuchijima” value in series [2] was found to be 30. Besides, in series [3], the “minimum inhibitory concentration (MIC), Escherichia coli K-12” value worked out at 3. The “minimum inhibitory concentration (MIC), Staphylococcus aureus Terajima” value in series [5] is > 100.

In the case of `CCn1cc(C(=O)O)c(=O)c2ccc(N3CCN(C)CC3)cc21` [compound 1090], the ED50 in series [1] (ip) was determined as 9.6 mg/kg; in series [1] (po), 13.6 mg/kg; in series [4], 91.4 mg/kg. In addition, the “minimum inhibitory concentration (MIC), Pseudomonas aeruginosa Tsuchijima” value in series [2] stood at 30. For the same molecule, in series [3], the “minimum inhibitory concentration (MIC), Escherichia coli K-12” value stood at 1. In addition, the “minimum inhibitory concentration (MIC), Staphylococcus aureus Terajima” value in series [5] worked out at 30. The 50% lethal dose (LD50) at 168 h in series [6] (iv) is > 500 mg/kg; in series [6] (po) it was 2000 mg/kg.

As for `CCn1cc(C(=O)O)c(=O)c2ccc(N3CCNCC3)cc21` [compound 1091], the 50% effective dose (ED50) was 15.5 mg/kg in series [1] (ip), ~109 mg/kg in series [1] (po) and 6.3 mg/kg in series [4]. Further, in series [2], the “minimum inhibitory concentration (MIC), Pseudomonas aeruginosa Tsuchijima” value is reported as 10. In addition, the “minimum inhibitory concentration (MIC), Escherichia coli K-12” value in series [3] stood at 1. For the same molecule, the “minimum inhibitory concentration (MIC), Staphylococcus aureus Terajima” value in series [5] was 30. For the same molecule, the LD50 at 168 h in series [6] (iv) was > 500 mg/kg; in series [6] (po) it was 2000 mg/kg.

Regarding `CCn1cc(C(=O)O)c(=O)c2ccc(N3CCN(C)CC3)nc21` [compound 1225], the “minimum inhibitory concentration (MIC), Pseudomonas aeruginosa Tsuchijima” value in series [2] was 30. The “minimum inhibitory concentration (MIC), Escherichia coli K-12” value in series [3] is given as 1. The “minimum inhibitory concentration (MIC), Staphylococcus aureus Terajima” value in series [5] stood at 100.

For the molecule `C=Cn1cc(C(=O)O)c(=O)c2ccc(N3CCN(C)CC3)nc21` [compound 1276], the “minimum inhibitory concentration (MIC), Pseudomonas aeruginosa Tsuchijima” value in series [2] was found to be 10. Also, in series [3], the “minimum inhibitory concentration (MIC), Escherichia coli K-12” value stood at 1. Moreover, the “minimum inhibitory concentration (MIC), Staphylococcus aureus Terajima” value in series [5] is given as > 100.

These data come from patent US4017622A, “Piperazine derivatives” (Dainippon Pharmaceutical Co., Ltd., priority 1972, dated 1977).
